Among the data in PubChem BioAssay (NCI) are GI50 and TGI values, retold here.

Values joined by “and” are separate entries in the source; they are usually repeats but may differ in a detail not shown here. Equal values may be shown once.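 How tested: cells in 96-well plates exposed to compound for 48 hours at five concentrations. Here, GI50 denotes the concentration required for 50% inhibition of growth. The concentration for full growth arrest is given as TGI.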

Among the test systems are SF-539 CNS; A549 NSCLC; COLO 205 colon; NCI-H460 lung; NCI-H522 lung; MDA-MB-435; SF-268 CNS; U251 CNS; M14 melanoma; DU-145 prostate.
Common to all, as to experiment: NCI-60 cell line screen, 48 h

In the case of `Nc1nc(N)c2nc(CNc3ccc(C(=O)NC(CCCNC(=O)c4ccccc4C(=O)O)C(=O)O)cc3)cnc2n1` (stereo not given), the GI50 with SF-539 CNS was 0.00346 µM; in the experiment with A549 NSCLC, 0.00379 µM; with COLO 205 colon it was 0.0765 µM; in the experiment on NCI-H460 lung it was 0.00045 µM; in the experiment with NCI-H522 lung, 0.016 µM; with M14 melanoma it was 0.0226 µM. For the same molecule, the TGI in the experiment with SF-539 CNS, with A549 NSCLC, in the experiment on COLO 205 colon, with NCI-H460 lung, in the experiment with NCI-H522 lung and with MDA-MB-435 was greater than 100 µM each time. Further, the TGI in the experiment with SF-268 CNS, in the experiment on U251 CNS, in the experiment on M14 melanoma and with DU-145 prostate was greater than 100 µM each time.

With `COc1ccc(-c2cc(-c3cc(OC)c(OC)c(OC)c3)c(C#N)c(N3CCOCC3)n2)cc1O`, the GI50 with SF-539 CNS is 2.52 µM; in the experiment on A549 NSCLC, 4.71 µM; in the experiment with COLO 205 colon it was 21.5 µM; in the experiment with NCI-H460 lung, 1.07 µM; with NCI-H522 lung it was 5.14 µM; in the experiment with MDA-MB-435, 3.28 µM. Moreover, the GI50 with SF-268 CNS is 6 µM; in the experiment with U251 CNS, 3.4 µM; in the experiment on M14 melanoma, 10.1 µM; with DU-145 prostate it was 5.3 µM. Moreover, the TGI in the experiment with SF-539 CNS is 12.5 µM; in the experiment on A549 NSCLC it was greater than 100 µM; in the experiment on COLO 205 colon it was greater than 100 µM; in the experiment with NCI-H460 lung, greater than 96.1 µM; with NCI-H522 lung, greater than 53.6 µM; with MDA-MB-435 it was greater than 43.7 µM. The TGI in the experiment on SF-268 CNS is greater than 100 µM; in the experiment on U251 CNS it was greater than 94.1 µM; with M14 melanoma, greater than 100 µM; in the experiment on DU-145 prostate it was greater than 100 µM.

On to `CNC1C(O)C(OC2C(N)CC(N)C(OC3OC(C(C)O)C(O)C(O)C3N)C2O)OCC1(C)O` (stereo not given), for which the TGI in the experiment with SF-539 CNS, with A549 NSCLC, in the experiment with COLO 205 colon, with NCI-H460 lung, in the experiment with NCI-H522 lung and in the experiment with MDA-MB-435 was greater than 100 µM each time. Further, the TGI in the experiment with SF-268 CNS, in the experiment with U251 CNS, in the experiment on M14 melanoma and in the experiment with DU-145 prostate was greater than 100 µM each time.

Turning to `O=C(CCCCCCSc1nc(-c2ccc(Cl)cc2)cc(-c2ccc(Cl)cc2)n1)NO`, the GI50 with SF-539 CNS was 1.53 µM; with A549 NSCLC it was 1.42 µM; in the experiment with COLO 205 colon, 1.55 µM; in the experiment on NCI-H460 lung, 1.41 µM; in the experiment on NCI-H522 lung it was 0.97 µM; in the experiment on MDA-MB-435, 1.86 µM. In addition, the GI50 in the experiment with SF-268 CNS was 1.7 µM; in the experiment with U251 CNS it was 1.63 µM; with M14 melanoma, 1.26 µM; with DU-145 prostate it was 1.46 µM. Also, the TGI in the experiment with SF-539 CNS was 5.57 µM; with A549 NSCLC, 5.1 µM; with COLO 205 colon it was 8.04 µM; with NCI-H460 lung it was 5.93 µM; with NCI-H522 lung, 4.45 µM; in the experiment with MDA-MB-435, 13.6 µM. For the same molecule, the TGI is 7.49 µM in the experiment with SF-268 CNS, 6.08 µM in the experiment with U251 CNS, 3.87 µM with M14 melanoma and 4.9 µM with DU-145 prostate.

As to `CC1=C[S+](c2ccccc2)c2cccc3cc4ccccc4c1c23` (stereo not given), the GI50 in the experiment with SF-539 CNS was 0.35 µM; with A549 NSCLC, 0.309 µM; in the experiment with COLO 205 colon, 0.147 µM; in the experiment with NCI-H460 lung, 0.349 µM; in the experiment on NCI-H522 lung, 0.297 µM; with MDA-MB-435, 0.276 µM. Further, the GI50 with SF-268 CNS is 0.237 µM; in the experiment with U251 CNS, 0.0458 µM; in the experiment with M14 melanoma, 0.189 µM; in the experiment with DU-145 prostate, 0.515 µM. The TGI in the experiment on SF-539 CNS is 1.28 µM; with A549 NSCLC, 3.59 µM; in the experiment on COLO 205 colon it was 0.314 µM; in the experiment with NCI-H460 lung, 2.37 µM; in the experiment on NCI-H522 lung it was 1.57 µM; in the experiment on MDA-MB-435, 1.61 µM. Moreover, the TGI with SF-268 CNS amounted to 1.76 µM; in the experiment with U251 CNS it was 0.337 µM; with DU-145 prostate, 2.13 µM.

Regarding `CCc1nc(Cl)nc(Cl)c1Cl`, the TGI was determined as 9.65 µM with SF-539 CNS; 9.56 µM in the experiment with A549 NSCLC; 14.6 µM in the experiment on COLO 205 colon; 28.5 µM in the experiment with NCI-H460 lung; 0.234 µM with NCI-H522 lung; 6.53 µM in the experiment with MDA-MB-435. The TGI came out at 3.37 µM in the experiment with SF-268 CNS, 3.32 µM in the experiment with U251 CNS, 5.29 µM with M14 melanoma and 23.1 µM with DU-145 prostate.

Regarding `COc1cnc2c(c1)C(=O)c1c-2n(CCCN2CCCC2)c(=O)c2cc(F)ccc12`, the GI50 in the experiment with SF-539 CNS is 0.36 µM; with A549 NSCLC, 0.0936 µM; with COLO 205 colon it was 0.109 µM; in the experiment with NCI-H460 lung, 0.0603 µM; in the experiment on NCI-H522 lung, 0.0819 µM; in the experiment on MDA-MB-435 it was 0.49 µM. Further, the GI50 was 0.411 µM in the experiment with SF-268 CNS, 0.116 µM in the experiment on U251 CNS, 0.392 µM in the experiment with M14 melanoma and 0.211 µM with DU-145 prostate. Also, the TGI in the experiment on SF-539 CNS was determined as 1.48 µM; in the experiment on A549 NSCLC, 0.351 µM; with COLO 205 colon it was 2.64 µM; in the experiment with NCI-H460 lung, 0.3 µM; in the experiment on NCI-H522 lung it was 1.23 µM; in the experiment on MDA-MB-435, 13.9 µM. Also, the TGI came to 13.9 µM with SF-268 CNS, 0.467 µM with U251 CNS, 1.95 µM in the experiment with M14 melanoma and 1.34 µM in the experiment with DU-145 prostate.

With `COc1ccccc1S(=O)(=O)Nc1ccc2c(c1)CN(C)C(=O)N2`, the GI50 with SF-539 CNS is 4.68 µM and 4.87 µM; in the experiment with A549 NSCLC, 9.07 µM and 22.2 µM; in the experiment on COLO 205 colon it was 2.61 µM and 2.8 µM; in the experiment with NCI-H460 lung it was 10.6 µM and 13.4 µM; in the experiment on NCI-H522 lung, 2.34 µM and 4.75 µM; in the experiment with MDA-MB-435 it was 4.24 µM and 2.63 µM. For the same molecule, the GI50 in the experiment with SF-268 CNS is 20 µM and 24.7 µM; in the experiment with U251 CNS it was 14.1 µM and 13.2 µM; in the experiment with M14 melanoma, 3.3 µM and 4.08 µM; in the experiment on DU-145 prostate, 67.4 µM and 33.1 µM. The TGI is 99.2 µM and > 100 µM in the experiment on SF-539 CNS; greater than 100 µM with A549 NSCLC; greater than 100 µM in the experiment with COLO 205 colon; greater than 100 µM with NCI-H460 lung; greater than 91.7 µM in the experiment with NCI-H522 lung; greater than 100 µM in the experiment with MDA-MB-435. Also, the TGI in the experiment on SF-268 CNS, in the experiment on U251 CNS, in the experiment on M14 melanoma and with DU-145 prostate was greater than 100 µM each time.

As to `CCOC(=O)Nc1ccc(-c2nc(-c3cccc(OC)c3)c(-c3ccnc(Br)c3)[nH]2)cc1`, the GI50 in the experiment with SF-539 CNS was 1.76 µM; in the experiment with A549 NSCLC, 3.07 µM; with COLO 205 colon, 3.23 µM; in the experiment with NCI-H460 lung it was 2.79 µM; with NCI-H522 lung it was 2.73 µM; in the experiment with MDA-MB-435, 2.73 µM. For the same molecule, the GI50 in the experiment with SF-268 CNS was 3.26 µM; with U251 CNS, 2.44 µM; with M14 melanoma it was 2.4 µM; in the experiment on DU-145 prostate, 3.24 µM. Further, the TGI in the experiment on SF-539 CNS was 4.56 µM; in the experiment with A549 NSCLC, greater than 100 µM; in the experiment with COLO 205 colon, greater than 100 µM; in the experiment with NCI-H460 lung, 8.41 µM; with NCI-H522 lung, 9.16 µM; with MDA-MB-435, 9.54 µM. The TGI was greater than 100 µM in the experiment on SF-268 CNS, greater than 100 µM in the experiment on U251 CNS, 7.5 µM with M14 melanoma and greater than 100 µM in the experiment with DU-145 prostate.
